# Patent publication US20220047587A1, “SYNERGISTIC COMPOSITIONS COMPRISING R-2-(SUBSTITUTED-SULFONYL)-HEXAHYDRO-PYRROLO[1,2-A]PYRAZIN-6(2H)-ONES AND S-2-(SUBSTITUTED-SULFONYL)-HEXAHYDRO-PYRROLO[1,2-A]PYRAZIN-6(2H)-ONES IN A NON-RACEMIC RATIO” (Metys Pharmaceuticals AG, priority 2018, published 2022)
# Marks after values point to notes of the source that are not given here.
# Assays:
# [1] = test system: scopolamine-treated mice; conditions: s.c., passive avoidance, cited from earlier work; for Amnesia reversal, %: at the lowest significant dose
# [2] = test system: paclitaxel-treated rats; experiment: Paclitaxel-induced peripheral sensory neuropathy model, hyperalgesia (paw pressure) after i.v. administration; assay type: in vivo, rat
# Source text: (§1) Results are expressed as the minimum dose (via the indicated route) at which a statistically-significant difference is observed when compared to time-matched injured rats receiving a vehicle administration by the same route. An analysis of variance, ANOVA, followed by Fisher's protected least significant difference procedure for post hoc comparison, was used to verify significance between two means of hyperalgesic behavioral results from the Randall & Selitto apparatus paw pressure test (“anti-hyperalgesia”) or from the Von Frey test (“mechanical allodynia”) or from the Cold Plate test (“cold allodynia”). P values 0.05 were considered significant. This definition applies to any doses specified herein as inhibiting “in a statistically significant manner”.
# (§2) Paw mechanical sensitivity was determined using a Randall & Selitto apparatus (Randall and Selitto, 1957) exerting a force that increases at constant rate (32 g/s). The stimulus causing paw withdrawal was evaluated before and at different times after treatment. Results represent the mean of mechanical thresholds for paw withdrawal expressed as grams. To avoid possible damage to the rat paw the maximum applied force was set at 240 g. In the single administration protocol, paw pressure tests were performed before (pre-dose) and at regular intervals after treatment.
# Paclitaxel (2 mg/kg i.p.) was administered on days 1, 3, 5 and 8. Test compounds were dissolved in saline and administered intravenously at the dose of 1 mg/kg to adult male Sprague-Dawley rats (Charles River, Italy, 220-250 g weight). Data were obtained at 0-75 minutes after injection and are expressed as the mean±s.e.m. of six animals. *P<0.05 and **<0.01 vs vehicle+paclitaxel treated rats; °P<0.05 and ^°°P<0.01 vs. NT24336 (R) treated group. […] *P<0.05 and **<0.01 vss vehicle+paclitaxel treated rats.
# [3] = test system: CCI rats; experiment: Chronic constriction injury (CCI) model, mechanical allodynia after oral administration; assay type: in vivo, rat; conditions: p.o.
# Source text: as §1
# Each animal was placed in a chamber with a mesh metal floor covered by a plastic dome that enabled the animal to walk freely, but not to jump. The mechanical stimulus was then delivered in the mid-plantar skin of left hind paw using an electronic von Frey apparatus (37400 Dynamic Plantar Aesthesiometer, Ugo Basile, Comerio, Varese, Italy). The cut-off was set at 50 g, while the increasing force rate (ramp duration) was set at 20 s. In the single administration protocol, pain threshold measurements have been performed before (pre-dose) and at regular intervals after treatment. In the repeated treatment protocol, the pre-test value was measured 13 h after the last administration; afterward the animals received a new administration and measures were performed at the described times. Results are expressed in […] and represent the mean±S.E.M. of mechanical thresholds.
# To evaluate the effect of test compounds in comparison to vehicle or selected comparators on mechanical hyperalgesia, the chronic constriction injury models in rats, a widely accepted model of painful neuropathy (Wang and Wang, 2003) was chosen.
# Neuropathy was induced according to the procedure described by Bennett and Xie ([…]). Briefly, rats were anaesthetized with chloral hydrate 400 mg/kg i.p. under aseptic conditions, the right common sciatic nerve was exposed at the level of the middle thigh by blunt dissection. Proximal to the trifurcation, the nerve was carefully freed from the surrounding connective tissue and four chromic cat gut ligatures (4-0, Ethicon, Norderstedt, Germany) were tied loosely around it with about 1 mm spacing. After hemostasis was confirmed, the incision was closed in layers. Then animals were allowed to recover from anesthesia and surgery and were kept one per cage with free access to water and standard laboratory chow. This procedure induces the appearance of hyperalgesia and allodynia in response to mechanical stimuli, which are evident 2-5 days after injury and reach their maximum severity in about 14 days.
# [4] = test system: MIA-treated rats; experiment: MIA-induced knee osteoarthritis model, mechanical hyperalgesia after i.v. administration; assay type: in vivo, rat
# Source text: as §1, §2
# A single intra-articular injection of sodium monoiodoacetate (MIA) was introduced into the knee joint of rats according to the method described by Fernihough J et al., 2004. Sodium monoiodoacetate (MIA) inhibits chondrocyte metabolism leading to cartilage degradation in form of osteoarthritic-like focal lesions in the cartilage associated with subchondral bone thickening 14 days after administration (Guingamp et al., 1997). This model therefore can easily and quickly reproduce osteoarthritic-like lesions and functional impairment in rats, similar to that observed in human disease (Guzman et al., 2003). After 7 days post-injection, the inflammatory component subsides and the remaining pain is considered neuropathic in nature. Briefly, rats were deeply anaesthetized with diethyl ether. Following abolition of the hind paw pinch withdrawal reflex, a 27-gauge needle was introduced into the joint cavity between the tibial plateau and femoral condyles. Once in place, 2 mg of MIA were diluted in a volume of […] of 1% CMC (carboxymethylcellulose in water, Sigma-Aldrich, Italy) and injected into one knee joint and the rat was allowed to recover for 14 days prior to pain assessment.
# [5] = test system: streptozotocin-treated mice; experiment: Streptozotocin diabetic peripheral neuropathy model, thermal hyperalgesia after oral administration; assay type: in vivo, mouse; conditions: p.o.
# Source text: as §1
# Mice (=30 g) were injected intravenously in the tail with 200 mg/kg streptozotocin (Wako Pure Chemicals, Richmond, Va.) prepared in saline adjusted to pH 4.5 in 0.1 N citrate buffer. Age-matched non-diabetic control mice were injected with the vehicle alone. Streptozotocin solutions were freshly prepared due to the limited stability of the compound. Animals were kept in a group of four per cage with special care of food and water supplement. The bed of the cage was changed every day. […] The serum glucose level was measured by glucose oxidase method from blood samples obtained by tail vein pricking. […] Animals at 7 days post-streptozotocin treatment were used in the study. […] Injections were performed using a Hamilton microliter syringe fitted with a 26-gauge needle, according to the method of Haley and McCormick (1957). The site of injection was 2 mm caudal and 2 lateral to the bregma, and 3 mm in depth from the skull surface. The injection volume was 5 μl.
# [6] = test system: vincristine-treated rats; experiment: Vincristine-induced peripheral sensory neuropathy model, hyperalgesia after oral administration; assay type: in vivo, rat; conditions: p.o.
# Source text: as §1, §2
# [7] = test system: oxaliplatin-treated rats; experiment: Oxaliplatin-induced peripheral sensory neuropathy model, hyperalgesia after oral administration; assay type: in vivo, rat; conditions: p.o.
# Source text: as §1, §2
# Peripheral sensory neuropathy was induced in adult rats, by administration of oxaliplatin (Tocris) at […] i.p. in saline once daily for 5 consecutive days every week for three weeks (cumulative dose 36 mg/kg) according to Cavaletti et al., 2001. Starting from day 21 after the first oxaliplatin administration, the effect of repeated oral administration of racemic unifiram or the preferred inventive composition with an enantiomeric excess of (R)-unifiram of 50% corresponding to a 3:1 (R):(S) ratio of the enantiomers on oxaliplatin-induced mechanical hyperalgesia was assessed.
Compound,"Amnesia reversal, % [1]",Lowest Dose at which scopolamine-induced amnesia is reversed in a statistically significant manner (P < 0.01) [1],Lowest dose at which paclitaxel-induced hyperalgesia is inhibited in a statistically significant manner (P < 0.05) ([2]; 15 min after administration),Lowest dose at which paclitaxel-induced hyperalgesia is inhibited in a statistically significant manner (P < 0.05) ([2]; 30 min after administration),Lowest dose at which paclitaxel-induced hyperalgesia is inhibited in a statistically significant manner (P < 0.05) ([2]; 45 min after administration),Lowest dose at which streptozotocin-induced diabetese-like thermal hyperalgesia is inhibited in a statistically significant manner (P < 0.05) ([5]; 30 min after administration),Lowest dose at which streptozotocin-induced diabetese-like thermal hyperalgesia is inhibited in a statistically significant manner (P < 0.05) ([5]; 60 min after administration),Lowest dose at which streptozotocin-induced diabetese-like thermal hyperalgesia is inhibited in a statistically significant manner (P < 0.05) ([5]; 90 min after administration),other results
"O=C1CCC2CN(S(=O)(=O)c3ccc(F)cc3)CCN12 (centres unmarked) [NT-24234, 2-(4-fluorophenyl)sulfonyl-hexahydropyrrolo[1,2-a]pyrazin-6(2H)-one]",78%,0.003 mg/kg,1 mg/kg,3 mg/kg,>10 mg/kg,,,,
"O=C1CCC2CN(S(=O)(=O)c3ccc(F)cc3)CCN12 (racemic) [NT-24617, (RS)-2-[(4-fluorophenyl)sulfonyl]hexahydropyrrolo[1,2-a]pyrazin-6-one]",100%,0.001 mg/kg,3* mg/kg,3 mg/kg,3 mg/kg,,,,Lowest dose at which paclitaxel-induced hyperalgesia is inhibited in a statistically significant manner (P < 0.05) ([2]; 60 min after administration): >3 mg/kg
"O=C1CCC2CN(S(=O)(=O)c3cccc(F)c3)CCN12 (centres unmarked) [NT-24782, 2-(3-fluorophenyl)sulfonyl-hexahydropyrrolo[1,2-a]pyrazin-6(2H)-one]",,,>3 mg/kg,>3 mg/kg,>3 mg/kg,,,,
"O=C1CCC2CN(S(=O)(=O)c3ccc(F)cc3)CCN12 (centres unmarked) [NT-24266, 2-(4-fluorophenyl)sulfonyl-hexahydropyrrolo[1,2-a]pyrazin-6(2H)-one]",75%,0.001 mg/kg,1 mg/kg,3 mg/kg,>10 mg/kg,,,,
"O=C1CCC2CN(S(=O)(=O)c3cccc(F)c3)CCN12 (centres unmarked) [NT-24337, 2-(3-fluorophenyl)sulfonyl-hexahydropyrrolo[1,2-a]pyrazin-6(2H)-one]",,,3 mg/kg,3 mg/kg,3 mg/kg,10 mg/kg,10 mg/kg,10 mg/kg,Lowest dose at which CCI-induced mechanical allodynia is inhibited in a statistically significant manner (P < 0.05) ([3]; 30 min after administration): 1 mg/kg; Lowest dose at which CCI-induced mechanical allodynia is inhibited in a statistically significant manner (P < 0.05) ([3]; 60 min after administration): 1 mg/kg; Lowest dose at which CCI-induced mechanical allodynia is inhibited in a statistically significant manner (P < 0.05) ([3]; 90 min after administration): 3 mg/kg; Lowest dose at which MIA-induced mechanical hyperalgesia is inhibited in a statistically significant manner (P < 0.05) ([4]; 15 min after administration): 3 mg/kg; Lowest dose at which MIA-induced mechanical hyperalgesia is inhibited in a statistically significant manner (P < 0.05) ([4]; 30 min after administration): 3 mg/kg; Lowest dose at which MIA-induced mechanical hyperalgesia is inhibited in a statistically significant manner (P < 0.05) ([4]; 45 min after administration): 3 mg/kg
"CNCC[C@H](Oc1cccc2ccccc12)c1cccs1 [Duloxetine, reference compound]",,,,,,30 mg/kg,30 mg/kg,30 mg/kg,Lowest dose at which streptozotocin-induced diabetese-like thermal hyperalgesia is inhibited in a statistically significant manner (P < 0.05) ([5]; 120 min after administration): 30 mg/kg
"O=C1CC[C@@H]2CN(S(=O)(=O)c3ccccc3F)CCN12 [NT-24336, 2-(2-fluorobenzenesulfonyl)hexahydropyrrolo[1,2-a]pyrazin-6-one]",,,3 mg/kg,3 mg/kg,3 mg/kg,30 mg/kg,30 mg/kg,30 mg/kg,Lowest dose at which CCI-induced mechanical allodynia is inhibited in a statistically significant manner (P < 0.05) ([3]; 30 min after administration): 1 mg/kg; Lowest dose at which CCI-induced mechanical allodynia is inhibited in a statistically significant manner (P < 0.05) ([3]; 60 min after administration): 3 mg/kg; Lowest dose at which CCI-induced mechanical allodynia is inhibited in a statistically significant manner (P < 0.05) ([3]; 90 min after administration): 3 mg/kg; Lowest dose at which vincristine-induced hyperalgesia is inhibited in a statistically significant manner (P < 0.05) ([6]; 30 min after administration): 10 mg/kg; Lowest dose at which vincristine-induced hyperalgesia is inhibited in a statistically significant manner (P < 0.05) ([6]; 60 min after administration): 10 mg/kg; Lowest dose at which vincristine-induced hyperalgesia is inhibited in a statistically significant manner (P < 0.05) ([6]; 90 min after administration): 10 mg/kg; Lowest dose at which vincristine-induced hyperalgesia is inhibited in a statistically significant manner (P < 0.05) ([6]; 120 min after administration): >10 mg/kg; Lowest dose at which MIA-induced mechanical hyperalgesia is inhibited in a statistically significant manner (P < 0.05) ([4]; 15 min after administration): 3 mg/kg; Lowest dose at which MIA-induced mechanical hyperalgesia is inhibited in a statistically significant manner (P < 0.05) ([4]; 30 min after administration): 3 mg/kg; Lowest dose at which MIA-induced mechanical hyperalgesia is inhibited in a statistically significant manner (P < 0.05) ([4]; 45 min after administration): 3 mg/kg; Lowest dose at which streptozotocin-induced diabetese-like thermal hyperalgesia is inhibited in a statistically significant manner (P < 0.05) ([5]; 120 min after administration): 30 mg/kg; Lowest dose at which oxaliplatin-induced hyperalgesia is inhibited in a statistically significant manner (P < 0.05) ([7]; 30 min after administration): 1 mg/kg; Lowest dose at which oxaliplatin-induced hyperalgesia is inhibited in a statistically significant manner (P < 0.05) ([7]; 60 min after administration): 1 mg/kg; Lowest dose at which oxaliplatin-induced hyperalgesia is inhibited in a statistically significant manner (P < 0.05) ([7]; 90 min after administration): 1 mg/kg; Lowest dose at which oxaliplatin-induced hyperalgesia is inhibited in a statistically significant manner (P < 0.05) ([7]; 120 min after administration): >10 mg/kg
